Laboratory results reported in US10501516B2, “Peptide compound” (TAKEDA PHARMACEUTICAL COMPANY LIMITED, priority 2016, dated 2019).
Square brackets hold non-standard residues; d marks the D form. Side chains are listed from the residue outwards. Peptide text beside a SMILES is read from it. * marks the point of attachment. Phe(2-F) = N[C@@H](Cc1ccccc1F)C(=O)O; NMeY = CN[C@@H](Cc1ccc(O)cc1)C(=O)O; Palmitoyl = CCCCCCCCCCCCCCCC(=O)*; αMeF = C[C@](N)(Cc1ccccc1)C(=O)O; Iva = CC[C@](C)(N)C(=O)O; Aib = CC(C)(N)C(=O)O

Key:
human GLP-1R = target: T1, human GLP-1R (Homo sapiens, UniProt P43220); assay: Reporter assay of human GLP-1R gene (agonist activity, intracellular cAMP as index); format: cell-based; details: Cre-luc reporter, hGLP-1R/Crel cells (CHO-K1), 4 hours
T1 construct: expressed in transfected cells; host or cells: CHO-K1 Cre-luc reporter cells (hGLP-1R/Crel cells)
Excerpt: (§1) Evaluation of Agonist Activity Against Human NPY2R, Human GIPR, and Human GLP-1R Using Change in Intracellular cAMP Concentration as Index
The human GLP-1R gene having a sequence identical to the sequence of GenBank Accession No. NM_002062 was cloned into pIRESneo3 vector (Clontech Laboratories, Inc.) to prepare hGLP-1R/pIRESneo3. This vector was introduced to the Cre-luc reporter cells obtained in (1) to obtain transformants. Next, a cell line induced to express luciferase, i.e., hGLP-1R/Crel cells, were selected from the obtained transformants by the addition of human GLP-1(7-37) peptide.
(§2) The hGIPR/CRE-LUC/CHO-K1 cells or the hGLP-1R/Crel cells were inoculated at a cell density of 25 μL/well (5,000 cells/well) to a 384-well white plate (Corning, 3570), and cultured overnight in Ham F12 medium containing 10% fetal bovine serum, 100 U/mL penicillin and 100 μg/mL streptomycin in a CO2 incubator of 37° C. On the next day, a medium containing a test compound was added at a concentration of 5 μL/well to the cells, and the resultant cells were incubated for 4 hours in a CO2 incubator of 37° C. to give the final concentration of 1 μM. SteadyGlo (Promega) was added thereto at a concentration of 30 μL/well, and the mixture was shaken with light shielded. After 30 minutes, the luciferase activity was measured using a plate reader Envision (PerkinElmer). For the GIPR agonist activity, the luciferase activity in the presence of 10 μM GIP was defined as 100%, and the luciferase activity from the addition of DMSO instead of the test compound was defined as 0%. The GIPR agonist activity was calculated with a rise in intracellular cAMP concentration as an index.
For the GLP-1R agonist activity, assay similar to above was conducted using the hGLP-1R/Crel cells. The luciferase activity in the presence of 10 μM GLP-1 was defined as 100%, and the luciferase activity from the addition of DMSO instead of the test compound was defined as 0%. The GLP-1R agonist activity was calculated with a rise in intracellular cAMP concentration as an index.

human GIPR = target: T2, human GIPR (Homo sapiens, UniProt P48546); assay: Reporter assay of human GIPR gene (agonist activity, intracellular cAMP as index); format: cell-based; details: Cre-luc reporter, hGIPR/CHO-K1 cells, 4 hours
T2 construct: expressed in transfected cells; host or cells: CHO-K1 Cre-luc reporter cells (hGIPR/CHO-K1, also called hGIPR/CRE-LUC/CHO-K1)
T2 sequence (P48546 22-466): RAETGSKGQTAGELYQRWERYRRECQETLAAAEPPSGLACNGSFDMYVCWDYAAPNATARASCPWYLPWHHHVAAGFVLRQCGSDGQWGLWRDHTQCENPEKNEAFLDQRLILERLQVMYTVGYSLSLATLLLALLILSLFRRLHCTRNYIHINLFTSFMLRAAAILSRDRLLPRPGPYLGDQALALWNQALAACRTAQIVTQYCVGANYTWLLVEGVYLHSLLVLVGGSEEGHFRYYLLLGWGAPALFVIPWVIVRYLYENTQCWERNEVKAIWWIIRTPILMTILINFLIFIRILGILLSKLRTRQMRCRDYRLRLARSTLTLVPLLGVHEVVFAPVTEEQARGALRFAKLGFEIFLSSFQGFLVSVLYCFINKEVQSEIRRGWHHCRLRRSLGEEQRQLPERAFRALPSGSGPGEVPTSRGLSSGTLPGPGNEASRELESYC
Excerpt: as §1
The human GIPR gene having a sequence identical to the sequence of GenBank Accession No. U39231 was cloned into pMSRα-neo vector to prepare hGIPR/pMSRα-neo. This vector was introduced to the Cre-luc reporter cells obtained in (1) to obtain transformants. Next, a cell line induced to express luciferase, i.e., hGIPR/CHO-K1 cells, were selected from the obtained transformants by the addition of GIP.
as §2

male C57BL/6J mouse = assay: Evaluation of feeding suppressive action in mice; format: in vivo; details: 30 nmol/kg s.c. once a day for 3 days; 3-days cumulative food consumption vs solvent control
Method in brief: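 Male C57BL/6J mice, 8-9 weeks, ad libitum fed, given compound (30 or 100 nmol/2 mL in 10% DMSO saline) s.c. at 2 mL/kg once daily for 3 days. Cumulative 3-day food consumption measured by weighing; suppression rate (%) calculated relative to vehicle controls.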

T1 sequence (P43220 24-463): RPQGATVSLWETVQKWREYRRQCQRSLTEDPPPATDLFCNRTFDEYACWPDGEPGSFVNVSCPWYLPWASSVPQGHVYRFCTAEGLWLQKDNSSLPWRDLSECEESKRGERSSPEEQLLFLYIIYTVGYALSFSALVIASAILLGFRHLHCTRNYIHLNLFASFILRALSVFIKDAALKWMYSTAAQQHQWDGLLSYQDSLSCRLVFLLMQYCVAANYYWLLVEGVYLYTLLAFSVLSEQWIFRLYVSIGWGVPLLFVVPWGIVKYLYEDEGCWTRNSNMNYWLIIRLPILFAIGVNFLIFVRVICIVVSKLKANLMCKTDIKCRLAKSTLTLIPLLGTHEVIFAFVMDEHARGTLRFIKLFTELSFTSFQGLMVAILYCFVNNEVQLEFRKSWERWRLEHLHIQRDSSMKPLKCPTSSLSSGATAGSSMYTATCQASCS

| EC50 (human GLP-1R) [nM] | EC50 (human GIPR) [nM] | Structure (SMILES) | Rate of feeding suppression (%) (male C57BL/6J mouse) |
| --- | --- | --- | --- |
| 0.13 | – | CCCCCCCCCCCCCCCC(=O)NCC(=O)NCC(=O)NCC(=O)NCC(=O)NCCCC[C@H](NC(=O)[C@H](CC(=O)O)NC(=O)[C@H](CO)NC(=O)[C@@H](NC(=O)[C@](C)(Cc1ccccc1)NC(=O)[C@@H](NC(=O)CNC(=O)[C@H](CCC(=O)O)NC(=O)C(C)(C)NC(=O)[C@H](Cc1ccc(O)cc1)NC)[C@@H](C)O)[C@@H](C)O)C(=O)NC(C)(C)C(=O)N[C@H](C(=O)NC(C)(C)C(=O)N[C@@H](CC(C)C)C(=O)N[C@@H](CC(=O)O)C(=O)N[C@@H](CCCCN)C(=O)N[C@@H](CCC(N)=O)C(=O)N[C@@H](CCCNC(=N)N)C(=O)N[C@@H](CCC(N)=O)C(=O)N[C@@](C)(CC)C(=O)N[C@@H](CCC(=O)O)C(=O)N[C@@H](Cc1ccccc1)C(=O)N[C@H](C(=O)N[C@@H](CCCNC(=N)N)C(=O)N[C@@H](Cc1c[nH]cn1)C(=O)N[C@@H](CC(C)C)C(=O)N[C@@H](CC(C)C)C(=O)N[C@@H](CC(N)=O)C(=O)N[C@@H](CCCCN)C(=O)NC(C)(C)C(=O)N[C@H](C(=O)N[C@@H](CCCNC(=N)N)C(=O)N[C@@H](CCC(N)=O)C(=O)N[C@@H](CCCNC(=N)N)C(=O)N[C@@H](Cc1ccccc1F)C(N)=O)[C@@H](C)O)C(C)C)[C@@H](C)CC [Example 5] (H-[NMeY][Aib]EGT[αMeF]TSDK([Gly-Gly-Gly-Gly-Palmitoyl])[Aib]I[Aib]LDKQRQ[Iva]EFVRHLLNK[Aib]TRQR[Phe(2-F)]-NH2) | – |
| 0.13 | 0.091 | CCCCCCCCCCCCCCCC(=O)NCC(=O)NCC(=O)NCC(=O)NCC(=O)NCCCC[C@H](NC(=O)[C@H](CC(=O)O)NC(=O)[C@H](CO)NC(=O)[C@@H](NC(=O)[C@](C)(Cc1ccccc1)NC(=O)[C@@H](NC(=O)CNC(=O)[C@H](CCC(=O)O)NC(=O)C(C)(C)NC(=O)[C@@H](N)Cc1ccc(O)cc1)[C@@H](C)O)[C@@H](C)O)C(=O)N[C@@H](CO)C(=O)N[C@@H](CCCCN)C(=O)NC(C)(C)C(=O)N[C@@H](CC(C)C)C(=O)N[C@@H](CC(=O)O)C(=O)N[C@@H](CCCCN)C(=O)N[C@@H](CCC(N)=O)C(=O)N[C@@H](CCCNC(=N)N)C(=O)N[C@@H](CCC(N)=O)C(=O)N[C@@](C)(CC)C(=O)N[C@@H](CCC(=O)O)C(=O)N[C@@H](Cc1ccccc1)C(=O)N[C@H](C(=O)N[C@@H](CCCNC(=N)N)C(=O)N[C@@H](Cc1c[nH]cn1)C(=O)N[C@@H](CC(C)C)C(=O)N[C@@H](CC(C)C)C(=O)N[C@@H](CC(N)=O)C(=O)N[C@@H](CCCCN)C(=O)NC(C)(C)C(=O)N[C@H](C(=O)N[C@@H](CCCNC(=N)N)C(=O)N[C@@H](CCC(N)=O)C(=O)N[C@@H](CCCNC(=N)N)C(=O)N[C@@H](Cc1ccc(O)cc1)C(N)=O)[C@@H](C)O)C(C)C [Example 23] (H-Y[Aib]EGT[αMeF]TSDK([Gly-Gly-Gly-Gly-Palmitoyl])SK[Aib]LDKQRQ[Iva]EFVRHLLNK[Aib]TRQRY-NH2) | – |
| 0.13 | – | CCCCCCCCCCCCCCCC(=O)NCC(=O)NCC(=O)NCC(=O)NCC(=O)NCCCC[C@H](NC(=O)[C@H](CC(=O)O)NC(=O)[C@H](CO)NC(=O)[C@@H](NC(=O)[C@](C)(Cc1ccccc1)NC(=O)[C@@H](NC(=O)CNC(=O)[C@H](CCC(=O)O)NC(=O)C(C)(C)NC(=O)[C@H](Cc1ccc(O)cc1)NC)[C@@H](C)O)[C@@H](C)O)C(=O)NC(C)(C)C(=O)N[C@H](C(=O)NC(C)(C)C(=O)N[C@@H](CC(C)C)C(=O)N[C@@H](CCC(=O)O)C(=O)N[C@@H](CCCCN)C(=O)N[C@@H](CCC(N)=O)C(=O)N[C@@H](CCCNC(=N)N)C(=O)N[C@@H](CCC(N)=O)C(=O)N[C@@](C)(CC)C(=O)N[C@@H](CCC(=O)O)C(=O)N[C@@H](Cc1ccccc1)C(=O)N[C@H](C(=O)N[C@@H](CCCNC(=N)N)C(=O)N[C@@H](Cc1c[nH]cn1)C(=O)N[C@@H](CC(C)C)C(=O)N[C@@H](CC(C)C)C(=O)N[C@@H](CC(N)=O)C(=O)N[C@@H](CCCCN)C(=O)NC(C)(C)C(=O)N[C@H](C(=O)N[C@@H](CCCNC(=N)N)C(=O)N[C@@H](CCC(N)=O)C(=O)N[C@@H](CCCNC(=N)N)C(=O)N[C@@H](Cc1ccc(O)cc1)C(N)=O)[C@@H](C)O)C(C)C)[C@@H](C)CC [Example 33] (H-[NMeY][Aib]EGT[αMeF]TSDK([Gly-Gly-Gly-Gly-Palmitoyl])[Aib]I[Aib]LEKQRQ[Iva]EFVRHLLNK[Aib]TRQRY-NH2) | −58.4 |
